Measured values published in US20100151104A1, “Preservative System For Beverages Based On Combinations Of Trans-Cinnamic Acid, Lauric Arginate, And Dimethyl Dicarbonate” (priority 2008, published 2010).

Legend:
Assay type in all cases: cell-based
[1] = tested on: seven bio-indicator strains (Zygosaccharomyce baili, Brettanomyces species, Saccharomyces cerevisiae, Paecilomyces lilacinus, Zygosaccharomyces bisporus …); test: Example 2: growth/no growth of seven bio-indicator strains in 4% apple juice beverage, 16 weeks; settings: FIGS. 1a, 1b; stand alone; pH 3.4; 16 weeks at 25° C.
Description: A single preparation of base beverage was employed to prepare each of five tests and consisted of 4% apple juice, 68 g sucrose/L, 52 g glucose/L, 2 g fructose/L prepared in batch water that was formulated to 90 ppm hardness with calcium chloride and magnesium chloride. […] The total combined quantity of sodium malate and malic acid was near constant, but the ratio of malic acid and malate varied slightly given the presence or absence of lauric arginate or cinnamic acid. Where required, lauric arginate or cinnamic acid was supplemented from separately prepared stock solutions. Each of the five tests employed the same bio-indicator organisms; Growth (+) versus no growth (-) established by visual inspection or spectrophotometrically. […] Y3, Zygosaccharomyce baili, Pepsi isolate 906; C-7UP, Brettanomyces species, Pepsi Isolate; Spore, an ascospore preparation of Saccharomyces cerevisiae 99 a Pepsi Isolate; […], Zygosaccharomyces baili, ATCC 60484; Spores, M7, Paecilomyces lilacinus ATCC 90461; […], Zygosaccharomyces bisporus ATCC 52407; Spores, M4, Talaromvces flavus var. flavus ATCC 10512. Samples were incubated for period of 16 weeks at 25° C. in vessels protective against evaporation.

Zygosaccharomyces bailii = test: Growth in 10% apple juice beverage with combinations of LAE & cinnamic acid; log (QA/Qa+QB/Qb) calculation
Description: (§1) Trans-cinnamic acid and lauric arginate were combined in the following beverage formulation: [table] […] The analysis of the interaction between lauric arginate and cinnamic acid can be refined through use of a mathematical method developed by Voorspuij and Nass (Arch. Int. pharmacodyn. 59:211 1957) (generally accepted among those practiced in the art.) Herein, the interactions between two active substances can be explored. First the quantity (Qa=Molar Cone) of compound A required for an end point (concentration required to stabilize product for 16 weeks) is established. Similarly, the quantity (Qb =Molar cone) of substance B required to establish the same endpoint is established. Thereafter, mixtures of A & B, in quantities QA & Qs are established that also define endpoints. […] If the sum of the ratios for a mixture of A & Bare=1, then the interaction is considered additive. […] Calculation of log (QA/Qa+QB/Qb) for LAE+trans Cinnamic Acid vs Zygosaccharomyces bailii

[2] = tested on: Brettanomyces bruxellensus; test: as above
Description: as §1, with “Brettanomyces bruzellensus” for “Zygosaccharomyces bailii”

Saccharomyces cerevsiae = test: as above
Description: as §1, with “[table] • Values reflect amount of growth (normalized) to control (0 ppm LAE & 0 ppm Cinnamic acid) for each pH tested.” for “[table]”, “Saccharomyces […]” for “Zygosaccharomyces bailii”

[3] = pH 3.0, LAE 0 ppm, Cinnamic Acid 10 ppm
[4] = pH 3.0, LAE 0 ppm, Cinnamic Acid 20 ppm
[5] = pH 3.0, LAE 0 ppm, Cinnamic Acid 50 ppm
[6] = pH 3.0, LAE 0 ppm, Cinnamic Acid 75 ppm
[7] = pH 3.0, LAE 0 ppm, Cinnamic Acid 100 ppm
[8] = pH 3.5, LAE 0 ppm, Cinnamic Acid 10 ppm
[9] = pH 3.5, LAE 0 ppm, Cinnamic Acid 20 ppm
[10] = pH 3.5, LAE 0 ppm, Cinnamic Acid 50 ppm
[11] = pH 3.5, LAE 0 ppm, Cinnamic Acid 75 ppm
[12] = pH 3.5, LAE 0 ppm, Cinnamic Acid 100 ppm
[13] = pH 4.0, LAE 0 ppm, Cinnamic Acid 10 ppm
[14] = pH 4.0, LAE 0 ppm, Cinnamic Acid 20 ppm
[15] = pH 4.0, LAE 0 ppm, Cinnamic Acid 50 ppm
[16] = pH 4.0, LAE 0 ppm, Cinnamic Acid 75 ppm
[17] = pH 4.0, LAE 0 ppm, Cinnamic Acid 100 ppm
[18] = stand alone, end point = concentration required to stabilize product for 16 weeks
[19] = pH 3.0, LAE 2.5 ppm, Cinnamic Acid 0 ppm
[20] = pH 3.0, LAE 5 ppm, Cinnamic Acid 0 ppm
[21] = pH 3.0, LAE 7.5 ppm, Cinnamic Acid 0 ppm
[22] = pH 3.0, LAE 10 ppm, Cinnamic Acid 0 ppm
[23] = pH 3.0, LAE 15 ppm, Cinnamic Acid 0 ppm
[24] = pH 3.5, LAE 2.5 ppm, Cinnamic Acid 0 ppm
[25] = pH 3.5, LAE 5 ppm, Cinnamic Acid 0 ppm
[26] = pH 3.5, LAE 7.5 ppm, Cinnamic Acid 0 ppm
[27] = pH 3.5, LAE 10 ppm, Cinnamic Acid 0 ppm
[28] = pH 3.5, LAE 15 ppm, Cinnamic Acid 0 ppm
[29] = pH 4.0, LAE 2.5 ppm, Cinnamic Acid 0 ppm
[30] = pH 4.0, LAE 5 ppm, Cinnamic Acid 0 ppm
[31] = pH 4.0, LAE 7.5 ppm, Cinnamic Acid 0 ppm
[32] = pH 4.0, LAE 10 ppm, Cinnamic Acid 0 ppm
[33] = pH 4.0, LAE 15 ppm, Cinnamic Acid 0 ppm

O=C(O)/C=C/c1ccccc1 [Cinnamic Acid, trans-cinnamic acid]
concentration required to inhibit all seven bio-indicator strains [1]: 1.61 mM
QA/Qa + QB/Qb (Zygosaccharomyces bailii; QLAE 0, QCA 300): 1.00
QLAE/QLAE* (Zygosaccharomyces bailii; QLAE 0, QCA 300): 0.00
QNaB/QNAB* (Zygosaccharomyces bailii; QLAE 0, QCA 300): 1.00
log (QA/Qa + QB/Qb) (Zygosaccharomyces bailii; QLAE 0, QCA 300): 0.0000
amount of growth (normalized) to control (Zygosaccharomyces bailii; [3]): 89%
amount of growth (normalized) to control (Zygosaccharomyces bailii; [4]): 82%
amount of growth (normalized) to control (Zygosaccharomyces bailii; [5]): 85%
amount of growth (normalized) to control (Zygosaccharomyces bailii; [6]): 45%
amount of growth (normalized) to control (Zygosaccharomyces bailii; [7]): 36%
amount of growth (normalized) to control (Zygosaccharomyces bailii; [8]): 97%
amount of growth (normalized) to control (Zygosaccharomyces bailii; [9]): 92%
amount of growth (normalized) to control (Zygosaccharomyces bailii; [10]): 76%
amount of growth (normalized) to control (Zygosaccharomyces bailii; [11]): 57%
amount of growth (normalized) to control (Zygosaccharomyces bailii; [12]): 48%
amount of growth (normalized) to control (Zygosaccharomyces bailii; [13]): 103%
amount of growth (normalized) to control (Zygosaccharomyces bailii; [14]): 94%
amount of growth (normalized) to control (Zygosaccharomyces bailii; [15]): 78%
amount of growth (normalized) to control (Zygosaccharomyces bailii; [16]): 74%
amount of growth (normalized) to control (Zygosaccharomyces bailii; [17]): 56%
QCA* (quantity of cinnamic acid alone required for the end point) (Zygosaccharomyces bailii; [18]): QCA* 300
QA/Qa + QB/Qb ([2]; QLAE 0, QCA 75): 1.00
QLAE/QLAE* ([2]; QLAE 0, QCA 75): 0.00
QNaB/QNAB* ([2]; QLAE 0, QCA 75): 1.00
log (QA/Qa + QB/Qb) ([2]; QLAE 0, QCA 75): 0.0000
amount of growth (normalized) to control [2, 3]: 85%
amount of growth (normalized) to control [2, 4]: 82%
amount of growth (normalized) to control [2, 5]: 4%
amount of growth (normalized) to control [2, 6]: 1%
amount of growth (normalized) to control [2, 7]: 1%
amount of growth (normalized) to control [2, 8]: 90%
amount of growth (normalized) to control [2, 9]: 89%
amount of growth (normalized) to control [2, 10]: 27%
amount of growth (normalized) to control [2, 11]: 0%
amount of growth (normalized) to control [2, 12]: 0%
amount of growth (normalized) to control [2, 13]: 99%
amount of growth (normalized) to control [2, 14]: 96%
amount of growth (normalized) to control [2, 15]: 65%
amount of growth (normalized) to control [2, 16]: 1%
amount of growth (normalized) to control [2, 17]: 1%
QCA* (quantity of cinnamic acid alone required for the end point) [2, 18]: QCA* 75
QA/Qa + QB/Qb (Saccharomyces cerevsiae; QLAE 0, QCA 300): 1.00
QLAE/QLAE* (Saccharomyces cerevsiae; QLAE 0, QCA 300): 0.00
QNaB/QNAB* (Saccharomyces cerevsiae; QLAE 0, QCA 300): 1.00
log (QA/Qa + QB/Qb) (Saccharomyces cerevsiae; QLAE 0, QCA 300): 0.0000
amount of growth (normalized) to control (Saccharomyces cerevsiae; [3]): 80%
amount of growth (normalized) to control (Saccharomyces cerevsiae; [4]): 74%
amount of growth (normalized) to control (Saccharomyces cerevsiae; [5]): 50%
amount of growth (normalized) to control (Saccharomyces cerevsiae; [6]): 26%
amount of growth (normalized) to control (Saccharomyces cerevsiae; [7]): 11%
amount of growth (normalized) to control (Saccharomyces cerevsiae; [8]): 96%
amount of growth (normalized) to control (Saccharomyces cerevsiae; [9]): 85%
amount of growth (normalized) to control (Saccharomyces cerevsiae; [10]): 61%
amount of growth (normalized) to control (Saccharomyces cerevsiae; [11]): 44%
amount of growth (normalized) to control (Saccharomyces cerevsiae; [12]): 22%
amount of growth (normalized) to control (Saccharomyces cerevsiae; [13]): 96%
amount of growth (normalized) to control (Saccharomyces cerevsiae; [14]): 87%
amount of growth (normalized) to control (Saccharomyces cerevsiae; [15]): 72%
amount of growth (normalized) to control (Saccharomyces cerevsiae; [16]): 54%
amount of growth (normalized) to control (Saccharomyces cerevsiae; [17]): 39%
QCA* (quantity of cinnamic acid alone required for the end point) (Saccharomyces cerevsiae; [18]): QCA* 300

CCCCCCCCCCCC(=O)N[C@@H](CCCNC(=N)N)C(=O)OCC.Cl [LAE, ethyl-N-lauroyl-L-argniate hydrochloride]
concentration required to inhibit all seven bio-indicator strains [1]: 0.16 mM
QA/Qa + QB/Qb (Zygosaccharomyces bailii; QLAE 76, QCA 0): 1.00
QLAE/QLAE* (Zygosaccharomyces bailii; QLAE 76, QCA 0): 1.00
QNaB/QNAB* (Zygosaccharomyces bailii; QLAE 76, QCA 0): 0.00
log (QA/Qa + QB/Qb) (Zygosaccharomyces bailii; QLAE 76, QCA 0): 0.0000
amount of growth (normalized) to control (Zygosaccharomyces bailii; [19]): 81%
amount of growth (normalized) to control (Zygosaccharomyces bailii; [20]): 88%
amount of growth (normalized) to control (Zygosaccharomyces bailii; [21]): 82%
amount of growth (normalized) to control (Zygosaccharomyces bailii; [22]): 79%
amount of growth (normalized) to control (Zygosaccharomyces bailii; [23]): 75%
amount of growth (normalized) to control (Zygosaccharomyces bailii; [24]): 95%
amount of growth (normalized) to control (Zygosaccharomyces bailii; [25]): 75%
amount of growth (normalized) to control (Zygosaccharomyces bailii; [26]): 75%
amount of growth (normalized) to control (Zygosaccharomyces bailii; [27]): 78%
amount of growth (normalized) to control (Zygosaccharomyces bailii; [28]): 86%
amount of growth (normalized) to control (Zygosaccharomyces bailii; [29]): 94%
amount of growth (normalized) to control (Zygosaccharomyces bailii; [30]): 80%
amount of growth (normalized) to control (Zygosaccharomyces bailii; [31]): 85%
amount of growth (normalized) to control (Zygosaccharomyces bailii; [32]): 114%
amount of growth (normalized) to control (Zygosaccharomyces bailii; [33]): 124%
QLAE* (quantity of LAE alone required for the end point) (Zygosaccharomyces bailii; [18]): QLAE* 76
amount of growth (normalized) to control [2, 19]: 97%
amount of growth (normalized) to control [2, 20]: 101%
amount of growth (normalized) to control [2, 21]: 96%
amount of growth (normalized) to control [2, 22]: 102%
amount of growth (normalized) to control [2, 23]: 94%
amount of growth (normalized) to control [2, 24]: 96%
amount of growth (normalized) to control [2, 25]: 106%
amount of growth (normalized) to control [2, 26]: 110%
amount of growth (normalized) to control [2, 27]: 114%
amount of growth (normalized) to control [2, 28]: 118%
amount of growth (normalized) to control [2, 29]: 115%
amount of growth (normalized) to control [2, 30]: 125%
amount of growth (normalized) to control [2, 31]: 124%
amount of growth (normalized) to control [2, 32]: 124%
amount of growth (normalized) to control [2, 33]: 131%
QLAE* (quantity of LAE alone required for the end point) [2, 18]: QLAE* 30
QA/Qa + QB/Qb (Saccharomyces cerevsiae; QLAE 32, QCA 0): 1.00
QLAE/QLAE* (Saccharomyces cerevsiae; QLAE 32, QCA 0): 1.00
QNaB/QNAB* (Saccharomyces cerevsiae; QLAE 32, QCA 0): 0.00
log (QA/Qa + QB/Qb) (Saccharomyces cerevsiae; QLAE 32, QCA 0): 0.0000
amount of growth (normalized) to control (Saccharomyces cerevsiae; [19]): 97%
amount of growth (normalized) to control (Saccharomyces cerevsiae; [20]): 97%
amount of growth (normalized) to control (Saccharomyces cerevsiae; [21]): 86%
amount of growth (normalized) to control (Saccharomyces cerevsiae; [22]): 94%
amount of growth (normalized) to control (Saccharomyces cerevsiae; [23]): 42%
amount of growth (normalized) to control (Saccharomyces cerevsiae; [24]): 103%
amount of growth (normalized) to control (Saccharomyces cerevsiae; [25]): 104%
amount of growth (normalized) to control (Saccharomyces cerevsiae; [26]): 93%
amount of growth (normalized) to control (Saccharomyces cerevsiae; [27]): 105%
amount of growth (normalized) to control (Saccharomyces cerevsiae; [28]): 57%
amount of growth (normalized) to control (Saccharomyces cerevsiae; [29]): 101%
amount of growth (normalized) to control (Saccharomyces cerevsiae; [30]): 96%
amount of growth (normalized) to control (Saccharomyces cerevsiae; [31]): 91%
amount of growth (normalized) to control (Saccharomyces cerevsiae; [32]): 90%
amount of growth (normalized) to control (Saccharomyces cerevsiae; [33]): 79%
QLAE* (quantity of LAE alone required for the end point) (Saccharomyces cerevsiae; [18]): QLAE* 32
